Test results reported in PMC4222822, “Discovery and Characterization of a Potent and Selective Inhibitor of Aedes aegypti Inward Rectifier Potassium Channels” (PLoS ONE, 2014).

Columns and labels:
[1] = system: mammalian Kir channels (Kir1.1, Kir2.1, Kir2.2, Kir2.3, Kir3.1/3.2, Kir4.1, Kir7.1(M125R), Kir6.2/SUR1); assay: Tl+ flux assays against a panel of mammalian Kir channels; format: cell-based; settings: vs AeKir1 IC50 = 96.8 nM
Protocol: The plates were transferred to a Hamamatsu Functional Drug Screening System 6000 (FDSS6000; Hamamatsu, Hamamatsu (or Bridgewater, NJ), Japan) where 20 µL/well of test compounds in assay buffer (as prepared below) were added and allowed to incubate with the cells for 20 min. After the incubation period, a baseline recording was collected at 1 Hz for 10 s (excitation 470±20 nm, emission 540±30 nm) followed by a Tl^+ stimulus buffer addition (10 µL/well) and data collection for an additional 4 min. The Tl^+ stimulus buffer contains in (mM) 125 NaHCO3, 1.8 CaSO4, 1 MgSO4, 5 glucose, 12 Tl2SO4, 10 HEPES, pH 7.4. For Tl^+ flux assays on the mammalian channels Kir2.x, Kir4.1 and Kir6.2/SUR1 expressing cells, the Tl^+ stimulus buffer contained 1.8 mM Tl2SO4. Also, Tl^+ flux assays on Kir3.1/3.2/mGlu8 expressing cell, required addition of an EC80 concentration of glutamate (Sigma-Aldrich, St. Louis, MO) with the Tl^+ stimulus buffer.
The test compounds were transferred to daughter polypropylene 384-well plates (Greiner Bio-One, Monroe, NC) using an Echo555 liquid handler (Labcyte, Sunnyvale, CA), and then diluted into assay buffer to generate a 2X stock in 0.6% DMSO (0.3% final). For Tl^+ flux assays on Kir6.2/SUR1 expressing cells, test compounds were diluted in assay buffer containing diazoxide (250 µM final) to induce channel activation. […]

Kir2.2 = target: T1, Kir2.2 (Homo sapiens, UniProt Q14500); assay: Tl+ flux selectivity assay, Kir2.2; format: cell-based; settings: n = 2 independent experiments in triplicate, read-out: Inhibition of Tl+ flux (IC50)
T1 construct: expressed in transfected cells
T1 sequence (Q14500 1-433): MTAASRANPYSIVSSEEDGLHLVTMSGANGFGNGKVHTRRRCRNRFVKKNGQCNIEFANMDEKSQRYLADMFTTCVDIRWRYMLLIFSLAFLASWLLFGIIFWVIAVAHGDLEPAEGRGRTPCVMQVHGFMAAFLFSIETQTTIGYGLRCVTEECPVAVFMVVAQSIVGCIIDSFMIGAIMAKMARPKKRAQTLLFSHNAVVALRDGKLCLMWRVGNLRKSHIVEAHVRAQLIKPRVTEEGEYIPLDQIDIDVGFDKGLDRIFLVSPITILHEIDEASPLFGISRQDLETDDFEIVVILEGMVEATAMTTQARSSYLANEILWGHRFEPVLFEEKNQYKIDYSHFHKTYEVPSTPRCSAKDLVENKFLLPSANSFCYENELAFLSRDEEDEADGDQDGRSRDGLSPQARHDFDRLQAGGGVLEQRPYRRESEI
Protocol: [Worded in the source for another target; used here, by the source, with some conditions changed.] Tl^+ flux assays were performed essentially as described previously, [18], [19]. Briefly, stably transfected T-Rex-HEK-293 cells expressing AeKir1 channels were cultured overnight in 384-well plates (20,000 cells/20 µL/well black-walled, clear-bottomed BD PureCoat amine-coated plates (BD, Bedford, MA) with a plating media containing DMEM, 10% dialyzed FBS and 1 µg/mL tetracycline. The next day, the cell culture medium was replaced with a dye-loading solution containing assay buffer (Hanks Balanced Salt Solution with 20 mM HEPES, pH 7.3), 0.01% (w/v) Pluronic F-127 (Life Technologies, Carlsbad, CA), and 1.2 µM of the thallium-sensitive dye Thallos-AM (TEFlabs, Austin, TX). Following 1 hr incubation at room temperature, the dye-loading solution was washed from the plates and replaced with 20 µL/well of assay buffer. […] Tl^+ flux data were analyzed as previously described, [21], [22] using a combination of Excel (Microsoft Corp, Redmond, WA) with XLfit add-in (IDBS, Guildford, Surrey, UK) and OriginPro (OriginLab, Northampton, MA) software. […] The slope of the fluorescence increase beginning 5 s after Tl^+ addition and ending 15 s after Tl^+ addition was calculated.

## CCC(=O)N1c2ccc(S(=O)(=O)Nc3cccc(OC)c3)cc2CC1C (centres unmarked) [VU625, N-(3-methoxyphenyl)-2-methyl-1-propionylindoline-5-sulfonamide]
[1]
  selectivity for the AeKir1 channel over 8 mammalian Kir channels: greater than 80 fold
Kir2.2
  IC50: > 30 µM
